Test results from PMC12467382, “Synthesis and Bioevaluation of Chalcones as Broad-Spectrum Antiviral Compounds Against Single-Stranded RNA Viruses” (Biomolecules, 2025).
“And” between values parts separate entries of the source, which are not always exact repeats. Equal values may be shown once.

Experiments:
[1] = system: Hs27 cells; assay: Propidium iodide (PI) staining cytotoxicity in Hs27 cells by flow cytometry; type: cell-based; conditions: for PI MTC: 24 h, concentration giving 10% PI+ cells, Hs27 cells, standard curve; for PI+ cells: 10 µM, 24 h post-treatment, untreated control subtracted
Procedure: Chalcone treatments were performed in DMEM supplemented with 10% HI FBS at the indicated concentrations and for indicated periods of time. Chalcone stocks were reconstituted in 100% dimethyl sulfoxide (DMSO) at a concentration of 10 mM and were serially diluted to working concentrations in DMSO. DMSO control treatments to test the effect of the vehicle were performed at volumes corresponding to the volume of chalcone added during each experiment (i.e., 1 µL chalcone DMSO solution/1 mL DMEM [10 µM] utilized alongside the DMSO control of 1 µL/1 mL DMEM). For cytotoxicity assays, untreated controls were subtracted from DMSO and chalcone sample values to account for the background signal.
For cytotoxicity assays, cells were stained with propidium iodide (PI) at a dilution of 1:100. Cell viability was determined via flow cytometry using the CytoFLEX (Beckman Coulter, Brea, CA, USA). CytExpert software (Beckman Coulter, version 2.4) was used to analyze independent events. PIV5 infection was monitored using flow cytometry via the FITC channel by analyzing GFP expression of individual cells. ZIKV infection was monitored utilizing Flavivirus group antigen–antibody (D1-4G2-4-15; Novus Biologicals, Littleton, CO, USA) staining for the ZIKV envelope protein. Cells were fixed and permeabilized using eBioscience Intracellular Fixation and Permeabilization Buffer (Invitrogen, Thermo Fisher Scientific, MA, USA) according to the manufacturer’s instructions. Secondary staining was performed using an anti-Alexa Fluor 488 (AF488) antibody (Invitrogen, Thermo Fisher Scientific, MA, USA). OC43 infection was monitored utilizing a primary antibody targeted toward the OC43 nucleocapsid protein (NP, MAB9013, Sigma-Aldrich, St. Louis, MO, USA). Secondary staining was performed using an AF488 antibody. Cells were fixed and permeabilized as previously described. LACV infection was monitored utilizing an anti-LACV Gc 807.31ab antibody kindly provided by Andrew Pekosv. Secondary staining was performed using an AF488 antibody. Cells were fixed and permeabilized as previously described.
To determine the actual cytotoxic effects of select chalcones in the series, human fibroblast Hs27 cells were treated with DMSO as a control or treated with each selected chalcone at a concentration of 10 µM. At 24 h post-treatment (hpt), the Hs27 cells were stained with propidium iodide (PI), a stain for cells with permeable plasma membranes, and then processed for flow cytometry (see Figure 4). […] These cytotoxicity findings reflected the relative growth-inhibition properties of 8f, 8l, 8o, 8p, 8s, 8w, 8x, and 8z observed in Table 2 (see Hs27 cell data).
The GFP IC50 was defined as the concentration of chalcone required to inhibit the GFP expression (as measured via flow cytometry) by 50% when compared to DMSO-treated cells. […] To determine these PI MTCs, Hs27 cells were treated with each chalcone at various concentrations for 24 h and then analyzed via flow cytometry for positive PI staining. Untreated controls were subtracted to account for background staining. […] Immediately following infection, media were replaced with chalcone-supplemented media at specified concentrations. GFP expression was analyzed via flow cytometry at 24 hpi.

[2] = system: Hs27 cells; assay: 48 h MTS growth inhibition assay in Hs27 cells; type: cell-based, human; conditions: for EC50: Homo sapiens, HS27, 48 h, read-out: Hs27 48 h EC50; for Hs27 48 h EC10: highest concentration giving 90% relative new cell growth after 48 h, 0.5% DMSO
Procedure: A cell growth assay using the MTS reagent was conducted to assess the general toxicity of each chalcone compound. […] Experiments were conducted in triplicate. In a typical experiment, there are two plates. The first is the control plate, which allows one to assess the starting cell population on the day of drug addition (Day 0). The second plate is the test plate where cells are plated and tested with different drug concentrations on Day 0. For example, either CHO cells or Hs27 cells were plated in a 200 µL volume at 1000 cells/well on both the control and test plates and incubated overnight to allow the cells to adhere. On Day 0, 1 μL of PBS was added to the control plate wells so that their total volume was 201 μL. MTS reagent (Promega Cell Titer 96 Aqueous non-radioactive cell proliferation reagent, Promega, Madison, WI, USA) was added (20 μL) to each well on the control plate, and that plate was incubated for 4 h in a 5% CO2 atmosphere at 37 °C and then read on the plate reader.
On Day 0, 1 μL of a 200× stock solution of each chalcone was added to the respected well on the test plate, and each condition was tested in triplicate. Drug solutions were prepared in advance in 100% DMSO and dosed so that the final DMSO concentration was 0.5%. For example, 1 μL of chalcone solution was added to the cells plated in each well in 200 μL of media. Of note, the respective chalcone addition occurred after an initial overnight incubation of each cell line in each well to reach Day 0 (the drugging day). After the chalcone was added, the cells were incubated in 5% CO2 for 48 h at 37 °C. After 48 h, the MTS reagent (Promega, Madison, WI, USA) was added (20 μL), and the test plates were incubated for an additional 4 h, and then, absorbance at 490 nm was measured on a BioTek Synergy MX plate reader. […] IC50 values were determined from the corresponding plot of relative absorbance at 490 nm vs. the drug concentration.
For highly colored materials like the chalcones, it is important to consider the contribution of the compound’s own absorbance to the MTS assay. To correct for the absorbance contribution of the chalcone itself, we measured each chalcone’s absorbance (Chalcone Abs) at 490 nm at the respective concentration (e.g., 10 µM) and subtracted the absorbance of the media background (blank Abs). This net value was then subtracted out of the Day 2 absorbance value to provide the % relative growth via the following equation:(1) % Relative Growth = (Day 2 Abs−Day 2 blank Abs)−Chalcone Abs−blank Abs−(Day 0 Abs−Day 0 blank Abs)/(Day 2 Control Abs −Day 2 blank Abs)−(Day 0 Abs−Day 0 blank Abs) ×100%
With the chalcones in hand, we then evaluated their growth-inhibition properties in Chinese hamster ovary (CHO-K1) cells and human Hs27 fibroblast cells.

SMILES: COc1ccccc1/C=C/C(=O)c1ccccc1O [Chalcone 8a]
- PI MTC [1]: >15 µM
- EC50 [2]: 20.3 ± 2.1 µM
- Hs27 48 h EC10 [2]: 0.6 ± 0.04 µM

SMILES: COc1ccc(Br)cc1/C=C/C(=O)c1c(O)cccc1OC [Chalcone 8f]
- PI+ cells [1]: 52.60% and 40–60%
- PI MTC [1]: 4.9 µM
- EC50 [2]: 2.3 ± 0.2 µM
- Hs27 48 h EC10 [2]: 1.4 ± 0.1 µM

SMILES: COc1ccc(Br)cc1/C=C/C(=O)c1c(O)cccc1OCc1ccccc1 [Chalcone 8l]
- PI+ cells [1]: 40–60% and 57.7%
- PI MTC [1]: 7.0 µM
- EC50 [2]: 7.8 ± 0.6 µM
- Hs27 48 h EC10 [2]: 6.1 ± 0.5 µM

SMILES: CCOc1ccc(Br)cc1/C=C/C(=O)c1c(O)cccc1OCc1ccccc1 [Chalcone 8o]
- PI+ cells [1]: < 10% and 8.5%
- PI MTC [1]: 10.5 µM
- EC50 [2]: 13.3 ± 1.1 µM
- Hs27 48 h EC10 [2]: 8.3 ± 0.5 µM

SMILES: CCOc1ccc(Cl)cc1/C=C/C(=O)c1c(O)cccc1OCc1ccccc1 [Chalcone 8p]
- PI+ cells [1]: < 10%
- PI MTC [1]: 8.4 µM
- EC50 [2]: 19.3 ± 1.9 µM
- Hs27 48 h EC10 [2]: 8.7 ± 0.7 µM

SMILES: COc1ccc(Br)cc1/C=C/C(=O)c1c(O)cccc1OCCC(C)C [Chalcone 8s, (2E)-3-(5-Bromo-2-Methoxy-Phenyl)-1-[2-Hydroxy-6-(3-Methyl-Butoxy)-Phenyl]-Propenone]
- PI+ cells [1]: 40–60%
- PI MTC [1]: 3.5 µM
- EC50 [2]: 13.9 ± 0.5 µM
- Hs27 48 h EC10 [2]: 6.9 ± 0.6 µM

SMILES: CCOc1ccc(Br)cc1/C=C/C(=O)c1c(O)cccc1OCc1ccc(-c2ccccc2)cc1 [Chalcone 8v, (2E)-1-[2-(Biphenyl-4-Ylmethoxy)-6-Hydroxy-Phenyl]3-(5-Bromo-2-Ethoxy-Phenyl)-Propenone]
- EC50 [2]: 18.4 ± 0.9 µM
- Hs27 48 h EC10 [2]: 3.4 ± 0.2 µM

SMILES: COc1ccc(Br)cc1/C=C/C(=O)c1c(O)cccc1OCc1ccc(-c2ccccc2)cc1 [Chalcone 8w, (2E)-1-[2-(Biphenyl-4-Ylmethoxy)-6-Hydroxy-Phenyl]3-(5-Bromo-2-Methoxy-Phenyl)-Propenone]
- PI+ cells [1]: ~ 11%
- PI MTC [1]: 4.5 µM
- EC50 [2]: 8.2 ± 0.5 µM
- Hs27 48 h EC10 [2]: 6.5 ± 0.5 µM

SMILES: COc1ccc(O)cc1/C=C/C(=O)c1c(O)cccc1OCc1ccccc1 [Chalcone 8x, (2E)-1-(2-Benzloxy-6-Hydroxy-Phenyl)-5-(5-Hydroxy-2-Methoxy-Phenyl)-Propenone]
- PI+ cells [1]: 40–60%
- EC50 [2]: 3.4 ± 0.3 µM
- Hs27 48 h EC10 [2]: 1.1 ± 0.07 µM

SMILES: COc1cc(/C=C/C(=O)c2c(O)cccc2OCc2ccccc2)cc(OC)c1OC [Chalcone 8z, (2E)-1-(2-Benzloxy-6-Hydroxy-Phenyl)-3-(3,4,5-Trimethoxy-Phenyl)-Propenone]
- PI+ cells [1]: 40–60%
- PI MTC [1]: 2.4 µM
- EC50 [2]: 5 ± 0.2 µM
- Hs27 48 h EC10 [2]: 4.0 ± 0.2 µM
